Values joined by “and” are separate entries in the source; they are usually repeats but may differ in a detail not shown here. Equal values may be shown once. Where a name gives a salt, the structure may show the parent alone.
Tests used:
[1] = test system: C-6 colon carcinoma; test: Antitumor activity vs C-6 colon carcinoma in mice; type: in vivo; details: daily for 10 days, 5 day delay
Text: (§1) Compounds according to formula II above are also active against transplanted tumors in mice. Table II which follows gives the results of testing (d,1)-2-ethoxy-1-[(2-trimethylaminoethoxy)phosphinyloxy]-eicosane,hydroxy inner salt, (A), against several such tumors. In the table, column 1 gives the name of the tumor, column 2 the dosage levels, column 3 toxic deaths, column 4, the percent tumor growth inhibition and column 5, the dosage schedule or regimen. Ten mice were given each dosage I.P. and a group of 20 mice used as controls.

[2] = test system: spontaneously hypertensive rats (SHR); test: Blood pressure and heart rate in spontaneously hypertensive rats, tail cuff method; type: in vivo, rat; details: for Blood pressure: tail cuff
Text: (§2) The above compounds are also active in lowering the blood pressure of spontaneously hypertensive rats (SHR). […] In the table, column 1 gives the compound used, column 2 the dose level, column 3, the route of administration, column 4, number of rats, column 5, the time of blood pressure measurement, column 6, blood pressure in mm (Hg), and column 7, heart rate.
*B.P. measured by tail cuff method.

[3] = test system: release of arachidonic acid from membrane phospholipids (rabbit neutrophils); test: Inhibition of release of arachidonic acid from membrane phospholipids in glycogen-elicited rabbit neutrophils; type: cell-based; details: A-23187 0.5 mcg/ml activation, 5 minutes pretreatment at 37° C.
Method: In this procedure, glycogen-elicited rabbit neutrophils are labelled with ^14 C-arachidonic acid by incubation for one hour at 37° C. and followed by treatment with the compound under test at 37° C. for 5 minutes. The cells were then activated by addition of 0.5 mcg/ml of A-23187 (an ionophore) for 5 minutes. Cellular metabolism was stopped; the membrane lipids extracted; and the extracted lipids chromatographed on TLC plates. Assays were conducted for free ^14 C-arachidonic acid and hydroxy^14 C-eicosatetraenoic acid (HETES) using a radiochromatogram scanner.

[4] = test system: CA755 mammary carcinoma; test: Antitumor activity vs CA755 mammary carcinoma; set-up: species or system mice; details: mouse, in vivo
Text: as §1

[5] = test system: M-5 ovarian carcinoma; test: Antitumor activity vs M-5 ovarian carcinoma; set-up: species or system mice; details: mouse, in vivo
Text: as §1

[6] = test system: X-5563 plasma cell myeloma; test: Antitumor activity vs X-5563 plasma cell myeloma in mice; type: in vivo; details: daily for 10 days with 3 day delay
Text: as §1
Table III gives the results obtained by comparing the activity of the racemate (d,1)-2-ethoxy-1-[(2-trimethylaminoethoxy)phosphinyloxy]eicosane,hydroxy inner salt (A), the L-(-)enantiomer (B) and the D-(+)enantiomer (C) versus X-5563, a plasma cell myeloma.

[7] = test system: 6C3 HED lymphosarcoma; test: Antitumor activity vs 6C3 HED lymphosarcoma in mice; type: in vivo; details: daily for 8 days after inoculation
Text: as §1

[8] = test system: C3 H mammary carcinoma; test: Antitumor activity vs C3 H mammary carcinoma; set-up: species or system mice; details: mouse, in vivo
Text: as §1

[9] = test system: P388 leukemia; test: Antitumor activity vs P388 leukemia; set-up: species or system mice; details: mouse, in vivo
Text: as §1

[10] = test system: spontaneously hypertensive rats (SHR); test: Blood pressure and heart rate in spontaneously hypertensive rats, femoral artery cannula; type: in vivo, rat; details: for Blood pressure: femoral artery cannula
Text: as §2
**B.P. measured by femoral artery cannula.

[11] = test system: X-5563 plasma cell myeloma; test: Oral dosing vs X-5563 plasma cell myeloma; type: in vivo, mice
[12] = 30 mg/kg S.C., 0 hours (baseline), 8 rats
[13] = 50 mg/kg S.C., 0 hours (baseline), 8 rats
[14] = 3 mg/kg I.V., 0 hours (baseline)
[15] = 10 mg/kg I.V., 0 hours (baseline)

## CCCCCCCCCCCCCCCCCCC(COP(=O)([O-])OCC[N+](C)(C)C)OCC (racemic) [Compound 3, (d,l)-2-Ethoxy-1-[(2-trimethylaminoethoxy)phosphinyloxy]eicosane, hydroxy inner salt]
[1]; 12 mg/kg I.P.
  Percent inhibition of Tumor growth: 23%
  Toxic deaths: 0/10
[1]; 17 mg/kg I.P.
  Percent inhibition of Tumor growth: 56%
  Toxic deaths: 1/10
[1]; 25 mg/kg I.P.
  Percent inhibition of Tumor growth: 24%
  Toxic deaths: 0/10
[1]; 35 mg/kg I.P.
  Percent inhibition of Tumor growth: Toxic
  Toxic deaths: 5/10
[2]; 5 mg/kg S.C., 0 hours (baseline), 5 rats
  Blood pressure: 188 mm Hg
[2]; 5 mg/kg S.C., 1 hour, 5 rats
  Blood pressure: 177 mm Hg
[2]; 5 mg/kg S.C., 2 hours, 5 rats
  Blood pressure: 159 mm Hg
[2]; 5 mg/kg S.C., 3 hours, 5 rats
  Blood pressure: 155 mm Hg
[2]; 5 mg/kg S.C., 4 hours, 5 rats
  Blood pressure: 154 mm Hg
[2]; 5 mg/kg S.C., 5 hours, 5 rats
  Blood pressure: 156 mm Hg
[2]; [12]
  Heart Rate: 335 beats/min
  Blood pressure: 188 mm Hg
[2]; 30 mg/kg S.C., 1 hour, 8 rats
  Heart Rate: 328 beats/min
  Blood pressure: 177 mm Hg
[2]; 30 mg/kg S.C., 2 hours, 8 rats
  Heart Rate: 349 beats/min
  Blood pressure: 151 mm Hg
[2]; 30 mg/kg S.C., 3 hours, 8 rats
  Heart Rate: 346 beats/min
  Blood pressure: 147 mm Hg
[2]; 30 mg/kg S.C., 4 hours, 8 rats
  Heart Rate: 347 beats/min
  Blood pressure: 156 mm Hg
[2]; 30 mg/kg S.C., 5 hours, 8 rats
  Heart Rate: 341 beats/min
  Blood pressure: 151 mm Hg
[2]; [13]
  Heart Rate: 345 beats/min
  Blood pressure: 190 mm Hg
[2]; 50 mg/kg S.C., 1 hour, 8 rats
  Heart Rate: 352 beats/min
  Blood pressure: 177 mm Hg
[2]; 50 mg/kg S.C., 2 hours, 8 rats
  Heart Rate: 355 beats/min
  Blood pressure: 149 mm Hg
[2]; 50 mg/kg S.C., 3 hours, 8 rats
  Heart Rate: 367 beats/min
  Blood pressure: 143 mm Hg
[2]; 50 mg/kg S.C., 4 hours, 8 rats
  Heart Rate: 357 beats/min
  Blood pressure: 139 mm Hg
[2]; 50 mg/kg S.C., 5 hours, 8 rats
  Heart Rate: 359 beats/min
  Blood pressure: 129 mm Hg
[2]; administered subcutaneously, various dose levels
  hypotensive effects in SHR (in words): hypotensive effects
[3]
  inhibition of the release of arachidonic acid (AA) from phospholipids: 69%
  inhibition of the total production of free AA and HETES: 97%
[4]
  activity against CA755 mammary carcinoma: no activity
[5]
  activity against M-5 ovarian carcinoma: no activity
[6]; 12 mg/kg
  Percent inhibition of Tumor growth: 37%
  Toxic deaths: 0/10
[6]; 17 mg/kg
  Toxic deaths: 0/10
[6]; 17 mg/kg, listed as (d,1)-A
  Percent inhibition of Tumor growth: 65%
[6]; 17 mg/kg, listed as A
  Percent inhibition of Tumor growth: 65% and 70%
[6]; 25 mg/kg, listed as (d,1)-A
  Percent inhibition of Tumor growth: 77%
  Toxic deaths: 0/10
[6]; 25 mg/kg, listed as A
  Percent inhibition of Tumor growth: 77% and 86%
  Toxic deaths: 0/10 and 2/10
[6]; 35 mg/kg, listed as (d,1)-A
  Percent inhibition of Tumor growth: Toxic
  Toxic deaths: 4/10
[6]; 35 mg/kg, listed as A
  Percent inhibition of Tumor growth: toxic
  Toxic deaths: 4/10 and 5/10
[6]; 50 mg/kg
  Toxic deaths: 10/10
[6]; 50 mg/kg, listed as (d,1)-A
  Percent inhibition of Tumor growth: Toxic
[6]; 50 mg/kg, listed as A
  Percent inhibition of Tumor growth: toxic
[6]; 70 mg/kg
  Percent inhibition of Tumor growth: toxic
  Toxic deaths: 10/10
[7]; 12 mg/kg I.P.
  Percent inhibition of Tumor growth: 10%
  Toxic deaths: 0/10
[7]; 17 mg/kg I.P.
  Percent inhibition of Tumor growth: 15%
  Toxic deaths: 0/10
[7]; 25 mg/kg I.P.
  Percent inhibition of Tumor growth: 48%
  Toxic deaths: 0/10
[7]; 35 mg/kg I.P.
  Percent inhibition of Tumor growth: 85%
  Toxic deaths: 0/10
[8]
  activity against C3 H mammary carcinoma: no activity
[9]
  activity against P388 leukemia: no activity
[10]; [14]
  Heart Rate: 335 beats/min
  Blood pressure: 195 mm Hg
[10]; 3 mg/kg I.V., 1.0 hours
  Heart Rate: 395 beats/min
  Blood pressure: 173 mm Hg
[10]; 3 mg/kg I.V., .08 hours
  Heart Rate: 280 beats/min
  Blood pressure: 105 mm Hg
[10]; 3 mg/kg I.V., .25 hours
  Heart Rate: 337 beats/min
  Blood pressure: 140 mm Hg
[10]; 3 mg/kg I.V., .5 hours
  Heart Rate: 370 beats/min
  Blood pressure: 153 mm Hg
[10]; [15]
  Heart Rate: 345 beats/min
  Blood pressure: 198 mm Hg
[10]; 10 mg/kg I.V., 1.0 hours
  Heart Rate: 365 beats/min
  Blood pressure: 154 mm Hg
[10]; 10 mg/kg I.V., .08 hours
  Heart Rate: 442 beats/min
  Blood pressure: 78 mm Hg
[10]; 10 mg/kg I.V., .25 hours
  Heart Rate: 420 beats/min
  Blood pressure: 140 mm Hg
[10]; 10 mg/kg I.V., .5 hours
  Heart Rate: 395 beats/min
  Blood pressure: 153 mm Hg
[11]; 25 mg/kg orally daily for 10 days after inoculation
  inhibition of tumor growth: 10%
[11]; 35 mg/kg orally daily for 10 days after inoculation
  inhibition of tumor growth: 47%
[11]; 50 mg/kg orally daily for 10 days after inoculation
  inhibition of tumor growth: 56%
[11]; 50, 35 and 25 mg/kg orally daily for 10 days
  toxicity: minimal toxicity
[11]; 50 and 70 mg/kg dose levels orally
  toxicity: toxic

— patent publication US4659859A, “2-alkoxy-1-alkoxy phosphoryl dichlorides” (priority 1986, dated 1987)
